# Measured values from PMC3728333, “Development of an Epidermal Growth Factor Derivative with EGFR Blocking Activity” (PLoS ONE, 2013).
# Columns and labels:
# EGFR [1] = conditions: ref [30]; cited from earlier work
# Excerpt: The binding of EGF through the three interaction sites of EGFR shifts the equilibrium between the two distinct EGFR conformations to the untethered one, enabling the dimerization arm in domain II to interact with an identical dimerization arm of another receptor to form the dimer, [14].
# human cancer cell lines = conditions: several human cancer cell lines; ref [11], [12]; cited from earlier work
# Excerpt: (§1) Our group has previously described that the Potato Carboxypeptidase Inhibitor (PCI) is an antagonist of human EGF. PCI is a 39-residue protein folded into a 27-residue globular core stabilized by three disulfide bonds that adopts the same conformation as EGF, the T-Knot scaffold. This similar structure probably accounts for the antagonistic activity.
# EGFR [2] = conditions: ref [11], [12], cited from earlier work
# Excerpt: as §1
# EGFR [3] = conditions: ref [39], [40]; cited from earlier work
# Excerpt: It is known that activated EGFR traffics from the plasma membrane to the cytoplasm through endocytic vesicles. Then, internalized EGFR can be eventually degraded in lysosomes, or recycled to the plasma membrane. Moreover, several reports have identified additional intracellular destinations for the internalized receptor, including ...
# MCF-7 cells = assay: Cell proliferation (MTT), MCF-7; format: cell-based, human; conditions: MCF-7, 20 and 150 nM, 72 h (3 days), medium without FBS, vs untreated
# Procedure: (§2) The optimal cell seeding concentration was previously established for both cell types, as described in the supporting information (Fig S1), in order to maintain the cells in an exponential growth phase along the experiment. The cells were allowed to attach and grow for 72 h in culture medium, then the cells were washed and medium without FBS was added to the cells for 24 h. […] The treatments were removed, and the cells were washed with PBS and incubated for 3 h with 100 μl of fresh culture medium together with 10 μl of MTT (3-(4,5-dimethylthiazol-2-yl)-2,5-diphenyltetrazolium bromide) (Sigma-Aldrich, St. Louis, MO, USA). Medium was discarded and dimethyl sulfoxide (DMSO) (Sigma-Aldrich, St. Louis, MO, USA) was added to each well to dissolve the purple formazan crystals. Plates were agitated at room temperature for 10 min and the absorbance of each well was determined with an absorbance microplate reader (ELx800, BioTek, Winooski, VT, USA) at a wavelength of 570 nm. Three replicates were used for each treatment. The cell viability was determined as a percentage of the untreated control cells, by dividing the mean absorbance of each treatment by the mean absorbance of the untreated cells.
# Caco-2 cells = assay: Cell proliferation (MTT), Caco-2; format: cell-based, human; conditions: Caco-2, any concentration tested (10, 20 and 150 nM), 96 h (4 days), medium without FBS, vs untreated
# Procedure: as §2
molecule,measurement,setting,value
Cc1ccc(C(=O)Nc2ccc(S(=O)(=O)O)c3cc(S(=O)(=O)O)cc(S(=O)(=O)O)c23)cc1NC(=O)c1cccc(NC(=O)Nc2cccc(C(=O)Nc3cc(C(=O)Nc4ccc(S(=O)(=O)O)c5cc(S(=O)(=O)O)cc(S(=O)(=O)O)c45)ccc3C)c2)c1 [suramin],interference with hEGF-EGFR interaction,EGFR [1],prevents hEGF from interacting with EGFR at site 3
"Potato Carboxypeptidase Inhibitor (QQHADPICNKPCKTHDDCSGAWFCQACWNSARTCGPYVG; UniProt P01075 1-39, looked up) [PCI, 39-residue protein folded into a 27-residue globular core stabilized by three disulfide bonds]",anti-proliferative activity in vitro,human cancer cell lines,showed anti-proliferative activity in vitro in several human cancer cell lines
same,affinity for EGFR (in words),EGFR [2]; earlier work,very low
same,EGFR activation,EGFR [2],inhibited EGFR activation
same,EGFR down regulation,EGFR [2],induced the down regulation of the receptor
same,competition with EGF for binding to EGFR,EGFR [2],competed with EGF for binding to EGFR
same,effective concentration compared to EGFt/hEGF (in words),EGFR [2],one order of magnitude higher (μM)
TGF-α: EGFR native ligand,stability of binding to EGFR at pH of endosomes,EGFR [3],rapidly dissociates from the receptor when exposed to the low pH of endosomes
human Epidermal Growth Factor [hEGF],cell proliferation (in words),MCF-7 cells,proliferative effect
same,cell proliferation (in words),Caco-2 cells,moderated but significant proliferative effect
same,stability of binding to EGFR at pH of endosomes,EGFR [3],relatively more stable at the pH of endosomes
